According to ChEMBL document CHEMBL1201862, “PubChem BioAssay data set” (2004):
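Five concentrations, 48 hours, 96-well plates. GI50 is the concentration that inhibits growth by half.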 The source made the active and inactive calls. Rule as the data show it: active = GI50 up to about 1.1 µM and inactive = higher.

Assays:
Assay in all cases: NCI-60 cell line screen, 48 h
[1] = system: UACC-257
[2] = system: M14
[3] = system: HT-29
[4] = system: SF-268
[5] = system: RXF 393
[6] = system: HCC 2998
[7] = system: HOP-62
[8] = system: KM12
[9] = system: SW-620
[10] = system: OVCAR-3
[11] = system: EKVX
[12] = system: MCF7
[13] = system: MDA-MB-231
[14] = system: CAKI-1
[15] = system: TK-10
[16] = system: Hs-578T
[17] = system: SF-295
[18] = system: NCI-H23
[19] = system: CCRF-CEM
[20] = system: A498

Row | SMILES | GI50 [1] | GI50 [2] | GI50 [3] | GI50 [4] | GI50 [5] | GI50 [6] | GI50 [7] | GI50 [8] | GI50 [9] | GI50 [10] | GI50 [11] | GI50 [12] | GI50 [13] | GI50 [14] | GI50 [15] | GI50 [16] | GI50 [17] | GI50 [18] | GI50 [19] | GI50 [20]
1 | O=C(C#Cc1ccccc1)C1=Cc2ccccc2OC1 | 2.7 µM (inactive) | 3.01 µM (inactive) | 2.11 µM (inactive) | 5.5 µM (inactive) | 3 µM (inactive) | 7.38 µM (inactive) | 13.6 µM (inactive) | 4.25 µM (inactive) | 2.22 µM (inactive) | 2.35 µM (inactive) | 2.09 µM (inactive) | 1.42 µM (inactive) | 3.21 µM (inactive) | 1.88 µM (inactive) | 1.9 µM (inactive) | 8.26 µM (inactive) | 20.7 µM (inactive) | 2.14 µM (inactive) | 0.198 µM (active) | 19.2 µM (inactive)
2 | CC(=O)O[C@H]1C(=O)[C@@]2(C)[C@H]([C@H](OC(=O)c3ccoc3)[C@]3(O)C[C@H](OC(=O)[C@H](O)[C@@H](NC(=O)c4ccccc4)c4ccccc4)C(C)=C1C3(C)C)[C@]1(OC(C)=O)CO[C@@H]1C[C@@H]2O | 0.538 µM (active) | 0.129 µM (active) | 0.0307 µM (active) | 0.0583 µM (active) | 0.277 µM (active) | 0.116 µM (active) | 0.206 µM (active) | 0.0344 µM (active) | 0.0448 µM (active) | 0.0296 µM (active) | > 9.59 µM (inactive) | 0.0138 µM (active) | 3.05 µM (inactive) | 8.18 µM (inactive) | > 2.99 µM (inactive) | 0.0249 µM (active) | 0.582 µM (active) | > 12.5 µM (inactive) | 0.0566 µM (active) | 0.811 µM (active)
3 | Cc1ccc2c(c1)C(=O)N1CCC[C@H]1C=N2 | 21.9 µM (inactive) | 16.9 µM (inactive) | 15.4 µM (inactive) | 31.3 µM (inactive) | 4.21 µM (inactive) | 19.6 µM (inactive) | 27.7 µM (inactive) | 15.5 µM (inactive) | 23.4 µM (inactive) | 19.1 µM (inactive) | 26.4 µM (inactive) | 11.9 µM (inactive) | 19.2 µM (inactive) | 15.6 µM (inactive) | 20.5 µM (inactive) | 15.3 µM (inactive) | 31.3 µM (inactive) | 16.5 µM (inactive) | 4.02 µM (inactive) | 34 µM (inactive)
4 | Clc1ncc(Cl)c(Cl)n1 | 5.22 µM (inactive) | 3.24 µM (inactive) | 1.36 µM (inactive) | 9.12 µM (inactive) | 2.05 µM (inactive) | 4.21 µM (inactive) | 16.5 µM (inactive) | 9.14 µM (inactive) | 1.38 µM (inactive) | 6.5 µM (inactive) | 13.3 µM (inactive) | 1.59 µM (inactive) | 3.03 µM (inactive) | 1.86 µM (inactive) | 9.55 µM (inactive) | 2.72 µM (inactive) | 13.2 µM (inactive) | 15.5 µM (inactive) | 2.47 µM (inactive) | 19.1 µM (inactive)
5 | CCOC(=O)N1c2ccccc2C(C)=CC(C)C1C (stereo not given) | 12.7 µM (inactive) | 13.6 µM (inactive) | 10.7 µM (inactive) | 38 µM (inactive) | 11.3 µM (inactive) | 45.6 µM (inactive) | 37.6 µM (inactive) | 9.82 µM (inactive) | 29.4 µM (inactive) | 16.7 µM (inactive) | 35.3 µM (inactive) | 10.3 µM (inactive) | 22.9 µM (inactive) | 16.2 µM (inactive) | 4.55 µM (inactive) | 35.6 µM (inactive) | 23.9 µM (inactive) | 22.8 µM (inactive) | 21.9 µM (inactive) | 27 µM (inactive)
6 | COc1ccc(C[C@@H]2NC[C@@H](O)[C@@H]2OC(C)=O)cc1 | 0.0228 µM (active) | 0.0185 µM (active) | 0.0197 µM (active) | 0.0232 µM (active) | 0.00641 µM (active) | 0.0208 µM (active) | 0.0214 µM (active) | 0.027 µM (active) | 0.0166 µM (active) | 0.0256 µM (active) | 0.0475 µM (active) | 0.0135 µM (active) | 0.0196 µM (active) | 0.0251 µM (active) | 0.0312 µM (active) | 0.0284 µM (active) | 0.0253 µM (active) | 0.021 µM (active) | 0.00899 µM (active) | 0.0157 µM (active)
7 | O=[N+]([O-])/C(C(Cl)=C(Cl)Cl)=C1\NCCS1 | 42.2 µM (inactive) | 46.9 µM (inactive) | 47.8 µM (inactive) | 39.9 µM (inactive) | 27.9 µM (inactive) | 34.4 µM (inactive) | > 100 µM (inactive) | 69.7 µM (inactive) | 56 µM (inactive) | 33.3 µM (inactive) | > 100 µM (inactive) | 36 µM (inactive) | 38.8 µM (inactive) | 45.7 µM (inactive) | > 100 µM (inactive) | 27.4 µM (inactive) | > 100 µM (inactive) | 31.5 µM (inactive) | 19.1 µM (inactive) | 26.1 µM (inactive)
8 | CC1CCC2(NC1)OC1CC3C4CC=C5CC(OC6OC(CO)C(OC7OC(C)C(O)C(O)C7O)C(O)C6OC6OC(C)C(O)C(O)C6O)CCC5(C)C4CCC3(C)C1C2C (stereo not given) | 2.64 µM (inactive) | 2.39 µM (inactive) | 5.69 µM (inactive) | 2 µM (inactive) | 4.05 µM (inactive) | 2.16 µM (inactive) | 4.09 µM (inactive) | 3.46 µM (inactive) | 4.4 µM (inactive) | 1.96 µM (inactive) | 2.5 µM (inactive) | 2.32 µM (inactive) | 3.78 µM (inactive) | 4.36 µM (inactive) | 5.31 µM (inactive) | 3.87 µM (inactive) | 2.08 µM (inactive) | 12.2 µM (inactive) | 15 µM (inactive) | 5.74 µM (inactive)
9 | CC(O)CCCOC(c1ccccc1)(c1ccccc1)c1ccccc1 (stereo not given) | 16.3 µM (inactive) | 15.5 µM (inactive) | 13.2 µM (inactive) | 15.9 µM (inactive) | 14.7 µM (inactive) | 15.3 µM (inactive) | 17.3 µM (inactive) | 14.3 µM (inactive) | 16.6 µM (inactive) | 14.2 µM (inactive) | 14.8 µM (inactive) | 14.7 µM (inactive) | 17.3 µM (inactive) | 16 µM (inactive) | 16.6 µM (inactive) | 18.7 µM (inactive) | 13.8 µM (inactive) | 14.1 µM (inactive) | 23.3 µM (inactive) | 20.1 µM (inactive)
10 | O=C(O)C(O)C(O)C(O)C(=O)CO (stereo not given) | > 100 µM (inactive) | > 100 µM (inactive) | > 100 µM (inactive) | > 100 µM (inactive) | > 100 µM (inactive) | > 100 µM (inactive) | > 100 µM (inactive) | > 100 µM (inactive) | > 100 µM (inactive) | > 100 µM (inactive) | > 100 µM (inactive) | > 100 µM (inactive) | > 100 µM (inactive) | > 100 µM (inactive) | > 100 µM (inactive) | > 100 µM (inactive) | > 100 µM (inactive) | > 100 µM (inactive) | > 100 µM (inactive) | > 100 µM (inactive)
